Measurements published in patent US20220339143A1, “TAK-925 FOR USE IN TREATING NARCOLEPSY” (Takeda Pharmaceutical Company Limited, priority 2019, published 2022).
Like-named read-outs stand apart in the source and are kept apart here.

Test: Single dose PK in healthy subjects (Cohorts 1, 2, S1 and S2), plasma
Assay type: in vivo, human
Conditions: human, plasma, iv, healthy subjects
Procedure: This study investigates (i) the safety and tolerability of Compound A (methyl (2R,3S)-3-((methylsulfonyl)amino)-2-(((cis-4-phenylcyclohexyl)oxy)methyl)piperidine-1-carboxylate) when a single dose given as a 9 hour continuous IV infusion is administered to healthy adults, healthy elderly subjects and patients with narcolepsy type 1 (NT1); (ii) the pharmacokinetics of Compound A when a single dose given as a 9 hour continuous IV infusion is administered to healthy adults, healthy elderly subjects and patients with narcolepsy type 1; and (iii) the pharmacodynamics (PD) effects of Compound A, primarily by evaluation of the sleep latency on MWT when a single dose given as a 9 hour continuous IV infusion is administered to patients with narcolepsy type 1.
Pharmacokinetics: Concentrations of Compound A in plasma, and CSF, and pharmacokinetics parameters.
On average, the time to reach the plateau appeared to be approximately 3 to 4 hours after the start of infusion. […] After switching off the IV infusion, Compound A plasma concentrations declined rapidly and in a biphasic manner with a mean terminal disposition phase t1/2z ranging approximately from 3.4 to 5.1 hours across all doses. […] Table 5 provides a summary of plasma concentrations of Compound A after a single IV infusion in healthy subjects. Table 6 provides a summary of pharmacokinetic parameters of Compound A after a single IV infusion in healthy subjects.

SMILES: COC(=O)N1CCC[C@H](NS(C)(=O)=O)[C@@H]1CO[C@H]1CC[C@@H](c2ccccc2)CC1 [Compound A, methyl (2R,3S)-3-((methylsulfonyl)amino)-2-(((cis-4-phenylcyclohexyl)oxy)methyl)piperidine-1-carboxylate]
- AUC(0-inf) (14 mg, 14 mg single IV infusion, read-out: AUCinf Median): 322 ng·h/mL
- AUC(0-t) (14 mg, 14 mg single IV infusion, read-out: AUClast Geo Mean): 323 ng·h/mL
- AUC(0-t) (14 mg, 14 mg single IV infusion, read-out: AUClast Mean): 326 ng·h/mL
- AUC(0-t) (14 mg, 14 mg single IV infusion, read-out: AUClast Median): 322 ng·h/mL
- clearance (14 mg, 14 mg single IV infusion, read-out: CL Mean (converted)): 718 mL/min
- clearance (14 mg, 14 mg single IV infusion, read-out: CL Median (converted)): 723 mL/min
- concentration at 9 h (14 mg, 14 mg single IV infusion, read-out: Ceoi Geo Mean): 29.8 ng/mL
- concentration at 9 h (14 mg, 14 mg single IV infusion, read-out: Ceoi Mean): 30.1 ng/mL
- concentration at 9 h (14 mg, 14 mg single IV infusion, read-out: Ceoi Median): 30.8 ng/mL
- Cmax (14 mg, 14 mg single IV infusion, read-out: Cmax Geo Mean): 36.8 ng/mL
- Cmax (14 mg, 14 mg single IV infusion, read-out: Cmax Mean): 37 ng/mL
- Cmax (14 mg, 14 mg single IV infusion, read-out: Cmax Median): 37 ng/mL
- Vd (14 mg, 14 mg single IV infusion, read-out: Vss Mean): 77.1 L
- Vd (14 mg, 14 mg single IV infusion, read-out: Vss Median): 72.7 L
- Vd (14 mg, 14 mg single IV infusion, read-out: Vz Mean): 272 L
- Vd (14 mg, 14 mg single IV infusion, read-out: Vz Median): 253 L
- Tmax (14 mg, 14 mg single IV infusion, read-out: tmax Mean): 3.67 h
- Tmax (14 mg, 14 mg single IV infusion, read-out: tmax Median): 4 h
- AUC (28 mg, 28 mg single IV infusion, read-out: AUC24 Geo Mean): 513 ng·h/mL
- AUC (28 mg, 28 mg single IV infusion, read-out: AUC24 Mean): 519 ng·h/mL
- AUC (28 mg, 28 mg single IV infusion, read-out: AUC24 Median): 543 ng·h/mL
- AUC(0-inf) (28 mg, 28 mg single IV infusion, read-out: AUCinf Geo Mean): 524 ng·h/mL
- AUC(0-inf) (28 mg, 28 mg single IV infusion, read-out: AUCinf Mean): 530 ng·h/mL
- AUC(0-inf) (28 mg, 28 mg single IV infusion, read-out: AUCinf Median): 549 ng·h/mL
- AUC(0-t) (28 mg, 28 mg single IV infusion, read-out: AUClast Geo Mean): 513 ng·h/mL
- AUC(0-t) (28 mg, 28 mg single IV infusion, read-out: AUClast Mean): 519 ng·h/mL
- AUC(0-t) (28 mg, 28 mg single IV infusion, read-out: AUClast Median): 543 ng·h/mL
- clearance (28 mg, 28 mg single IV infusion, read-out: CL Mean (converted)): 903 mL/min
- clearance (28 mg, 28 mg single IV infusion, read-out: CL Median (converted)): 850 mL/min
- concentration at 9 h (28 mg, 28 mg single IV infusion, read-out: Ceoi Geo Mean): 52.1 ng/mL
- concentration at 9 h (28 mg, 28 mg single IV infusion, read-out: Ceoi Mean): 52.5 ng/mL
- concentration at 9 h (28 mg, 28 mg single IV infusion, read-out: Ceoi Median): 55.3 ng/mL
- Cmax (28 mg, 28 mg single IV infusion, read-out: Cmax Geo Mean): 57.6 ng/mL
- Cmax (28 mg, 28 mg single IV infusion, read-out: Cmax Mean): 58.1 ng/mL
- Cmax (28 mg, 28 mg single IV infusion, read-out: Cmax Median): 59.3 ng/mL
- Vd (28 mg, 28 mg single IV infusion, read-out: Vss Mean): 116 L
- Vd (28 mg, 28 mg single IV infusion, read-out: Vss Median): 105 L
- Vd (28 mg, 28 mg single IV infusion, read-out: Vz Mean): 392 L
- Vd (28 mg, 28 mg single IV infusion, read-out: Vz Median): 406 L
- Tmax (28 mg, 28 mg single IV infusion, read-out: tmax Mean): 3 h
- Tmax (28 mg, 28 mg single IV infusion, read-out: tmax Median): 3 h
- AUC (56 mg, 56 mg single IV infusion, read-out: AUC24 Geo Mean): 1060 ng·h/mL
- AUC (56 mg, 56 mg single IV infusion, read-out: AUC24 Mean): 1070 ng·h/mL
- AUC (56 mg, 56 mg single IV infusion, read-out: AUC24 Median): 1040 ng·h/mL
- AUC(0-inf) (56 mg, 56 mg single IV infusion, read-out: AUCinf Geo Mean): 1060 ng·h/mL
- AUC(0-inf) (56 mg, 56 mg single IV infusion, read-out: AUCinf Mean): 1080 ng·h/mL
- AUC(0-inf) (56 mg, 56 mg single IV infusion, read-out: AUCinf Median): 1050 ng·h/mL
- AUC(0-t) (56 mg, 56 mg single IV infusion, read-out: AUClast Geo Mean): 1060 ng·h/mL
- AUC(0-t) (56 mg, 56 mg single IV infusion, read-out: AUClast Mean): 1070 ng·h/mL
- AUC(0-t) (56 mg, 56 mg single IV infusion, read-out: AUClast Median): 1040 ng·h/mL
- clearance (56 mg, 56 mg single IV infusion, read-out: CL Mean (converted)): 885 mL/min
- clearance (56 mg, 56 mg single IV infusion, read-out: CL Median (converted)): 891 mL/min
- concentration at 9 h (56 mg, 56 mg single IV infusion, read-out: Ceoi Geo Mean): 115 ng/mL
- concentration at 9 h (56 mg, 56 mg single IV infusion, read-out: Ceoi Mean): 115 ng/mL
- concentration at 9 h (56 mg, 56 mg single IV infusion, read-out: Ceoi Median): 112 ng/mL
- Cmax (56 mg, 56 mg single IV infusion, read-out: Cmax Geo Mean): 123 ng/mL
- Cmax (56 mg, 56 mg single IV infusion, read-out: Cmax Mean): 123 ng/mL
- Cmax (56 mg, 56 mg single IV infusion, read-out: Cmax Median): 122 ng/mL
- Vd (56 mg, 56 mg single IV infusion, read-out: Vss Mean): 91.4 L
- Vd (56 mg, 56 mg single IV infusion, read-out: Vss Median): 89.1 L
- Vd (56 mg, 56 mg single IV infusion, read-out: Vz Mean): 291 L
- Vd (56 mg, 56 mg single IV infusion, read-out: Vz Median): 282 L
- Tmax (56 mg, 56 mg single IV infusion, read-out: tmax Mean): 4.5 h
- Tmax (56 mg, 56 mg single IV infusion, read-out: tmax Median): 4 h
- AUC (112 mg, 112 mg single IV infusion, read-out: AUC24 Geo Mean): 2070 ng·h/mL
- AUC (112 mg, 112 mg single IV infusion, read-out: AUC24 Mean): 2090 ng·h/mL
- AUC (112 mg, 112 mg single IV infusion, read-out: AUC24 Median): 2130 ng·h/mL
- AUC(0-inf) (112 mg, 112 mg single IV infusion, read-out: AUCinf Geo Mean): 2090 ng·h/mL
- AUC(0-inf) (112 mg, 112 mg single IV infusion, read-out: AUCinf Mean): 2110 ng·h/mL
- AUC(0-inf) (112 mg, 112 mg single IV infusion, read-out: AUCinf Median): 2160 ng·h/mL
- AUC(0-t) (112 mg, 112 mg single IV infusion, read-out: AUClast Geo Mean): 2070 ng·h/mL
- AUC(0-t) (112 mg, 112 mg single IV infusion, read-out: AUClast Mean): 2090 ng·h/mL
- AUC(0-t) (112 mg, 112 mg single IV infusion, read-out: AUClast Median): 2130 ng·h/mL
- clearance (112 mg, 112 mg single IV infusion, read-out: CL Mean (converted)): 902 mL/min
- clearance (112 mg, 112 mg single IV infusion, read-out: CL Median (converted)): 867 mL/min
- concentration at 9 h (112 mg, 112 mg single IV infusion, read-out: Ceoi Geo Mean): 214 ng/mL
- concentration at 9 h (112 mg, 112 mg single IV infusion, read-out: Ceoi Mean): 216 ng/mL
- concentration at 9 h (112 mg, 112 mg single IV infusion, read-out: Ceoi Median): 221 ng/mL
- Cmax (112 mg, 112 mg single IV infusion, read-out: Cmax Geo Mean): 235 ng/mL
- Cmax (112 mg, 112 mg single IV infusion, read-out: Cmax Mean): 238 ng/mL
- Cmax (112 mg, 112 mg single IV infusion, read-out: Cmax Median): 250 ng/mL
- Vd (112 mg, 112 mg single IV infusion, read-out: Vss Mean): 97.8 L
- Vd (112 mg, 112 mg single IV infusion, read-out: Vss Median): 104 L
- Vd (112 mg, 112 mg single IV infusion, read-out: Vz Mean): 289 L
- Vd (112 mg, 112 mg single IV infusion, read-out: Vz Median): 301 L
- Tmax (112 mg, 112 mg single IV infusion, read-out: tmax Mean): 4.25 h
- Tmax (112 mg, 112 mg single IV infusion, read-out: tmax Median): 4 h
- AUC (134.4 mg, 134.4 mg single IV infusion, read-out: AUC24 Geo Mean): 2660 ng·h/mL
- AUC (134.4 mg, 134.4 mg single IV infusion, read-out: AUC24 Mean): 2690 ng·h/mL
- AUC (134.4 mg, 134.4 mg single IV infusion, read-out: AUC24 Median): 2670 ng·h/mL
- AUC(0-inf) (134.4 mg, 134.4 mg single IV infusion, read-out: AUCinf Geo Mean): 2680 ng·h/mL
- AUC(0-inf) (134.4 mg, 134.4 mg single IV infusion, read-out: AUCinf Mean): 2720 ng·h/mL
- AUC(0-inf) (134.4 mg, 134.4 mg single IV infusion, read-out: AUCinf Median): 2680 ng·h/mL
- AUC(0-t) (134.4 mg, 134.4 mg single IV infusion, read-out: AUClast Geo Mean): 2660 ng·h/mL
- AUC(0-t) (134.4 mg, 134.4 mg single IV infusion, read-out: AUClast Mean): 2690 ng·h/mL
- AUC(0-t) (134.4 mg, 134.4 mg single IV infusion, read-out: AUClast Median): 2670 ng·h/mL
- clearance (134.4 mg, 134.4 mg single IV infusion, read-out: CL Mean (converted)): 848 mL/min
- clearance (134.4 mg, 134.4 mg single IV infusion, read-out: CL Median (converted)): 839 mL/min
- concentration at 9 h (134.4 mg, 134.4 mg single IV infusion, read-out: Ceoi Geo Mean): 290 ng/mL
- concentration at 9 h (134.4 mg, 134.4 mg single IV infusion, read-out: Ceoi Mean): 292 ng/mL
- concentration at 9 h (134.4 mg, 134.4 mg single IV infusion, read-out: Ceoi Median): 300 ng/mL
